Measurements as given in publication PMC4608832, “Synthesis of New 4-Aminoquinolines and Evaluation of Their In Vitro Activity against Chloroquine-Sensitive and Chloroquine-Resistant Plasmodium falciparum” (PLoS ONE, 2015).
Like-named read-outs stand apart in the source and are kept apart here.

Columns and labels:
[1] = tested on: P. falciparum 3D7 (CQ-sensitive); test: In vitro antiplasmodial activity, 3H-hypoxanthine incorporation, strain 3D7; type: cell-based; details: Plasmodium falciparum, IC50 ± SD
Protocol: (§1) The following strains of Plasmodium falciparum were used in this study: F32 (Tanzania), Dd2 (SE Asia), K1 (SE Asia), FcB1 (Colombia), K14 (Cambodia) and 3D7 (Africa). […] Parasites at the ring stage (laboratory A) or asynchronous parasites (laboratory B) were grown in human A+ or O+ red blood cells at a 1.5% (laboratory A) or 2% (laboratory B) haematocrit and a 0.8–1% parasitaemia. Synchronization of the parasites was performed by sorbitol treatment.
(§2) Further dilutions were in complete culture medium. The complexes were tested for their inhibitory effect toward P. falciparum intraerythrocytic development. […] 100 μL from a culture at a 3% (laboratory A) or 4% (laboratory B) hematocrit in complete medium was added per well. […] Plates were freeze-thawed and harvested on filters. […] The percentage of growth inhibition was calculated from the parasite-associated radioactivity. 100% ^3H-hypoxanthine incorporation was determined from a control grown in the absence of drug or test compound.

[2] = Cytotoxicity, MTT, MRC5 cells; type: cell-based; details: human, MRC-5 cells, concentration inducing 50% of cell growth arrest, five days
Protocol: (§3) The rat L-6 and human MRC-5 cell lines were routinely grown in RPMI 1640 supplemented with 11 mM glucose, 27.5 mM NaHCO3, 100 UI/mL penicillin, 100 μg/mL streptomycin and 10% fetal calf serum (RPMI-FCS), in a 5% CO2 incubator at 37°C. For cytotoxicity assays, 100 μL per well of a 2×10^4 cells/mL suspension in RPMI-FCS were deposited in a 96-well microplate and incubated overnight in culture conditions. Then decreasing concentrations of the compounds to test were established by twofold serial dilutions in RPMI-FCS and distributed at a rate of 100 μL per well and the microplate was put back in the incubator for an additional three (L-6) or five (MRC-5) day period. Then the supernatant in each well was discarded and replaced by 100 μL of MTT 1 mg/mL in RPMI-FCS. The microplate was re-incubated in culture conditions for three hours, then 100 μL of 10% SDS was added by well. The cells were left overnight in the incubator then the OD at 540nm was measured with the Bio-Tek FL600™ microplate reader equipped with the KC4™ software. […] The selectivity of each compound to P. falciparum was assessed through the selectivity index (SI), defined as CC50 (to L6 or MRC5 cells) / IC50 (to P. falciparum).

[3] = tested on: P. falciparum F32 (CQ-sensitive); test: In vitro antiplasmodial activity, 3H-hypoxanthine incorporation, strain F32; type: cell-based; details: Plasmodium falciparum
Protocol: as §1, §2
(§4) IC50 ± SD values (nM) determined from independent experiments performed in triplicate under the conditions of laboratory B (Paris).

[4] = tested on: P. falciparum K1 (CQ-resistant); test: In vitro antiplasmodial activity, 3H-hypoxanthine incorporation, strain K1; type: cell-based; details: Plasmodium falciparum, IC50 ± SD
Protocol: as §1, §2

[5] = In vitro microsomal metabolic stability; details: for microsomal CLint at 1 μM / half-life at 1 μM: human; for microsomal CLint at 1 μM: pH 7.4
Protocol: The evaluation of microsomal stability was performed by Cyprotex US, LLC, Watertown, MA. […] After separation on an HILIC HPLC colum (Sepax HILIC […] 2.1 x 30 mm) using an acetonitrile-water gradient system, peaks were analyzed by mass spectrometry (MS) using ESI ionization in MRM mode. The signal was optimized for each compound by ESI positive or negative ionization mode. An MS2 scan or an SIM scan was used to optimize the fragmenter voltage and a product ion analysis was used to identify the best fragment for analysis, and the collision energy was optimized using a product ion or MRM scan. An ionization ranking was assigned indicating the compound’s ease of ionization.
A control reaction omitting NADPH was performed for each compound in order to detect any NADPH-independent degradation. Aliquots were removed at 0, 10, 20, 40, and 60 min and mixed with an equal volume of ice-cold Stop Solution (methanol containing haloperidol, diclofenac, or other internal standard). The stopped reactions were further incubated for at least 10 min at -20°C, and an additional volume of water was added. The samples were centrifuged to remove precipitated protein, and the supernatants were analyzed by LC/MS/MS to quantify the remaining parent. Data were converted to % remaining by dividing by the time zero concentration value, and fitted to a first-order decay model to determine half-life values. Intrinsic clearance values were calculated from the half-life and protein concentrations by using the equation CLint = ln 2 / t1/2 [microsomal protein].

[6] = tested on: P. falciparum FcB1 (CQ-resistant); test: In vitro antiplasmodial activity, 3H-hypoxanthine incorporation, strain FcB1; type: cell-based; details: Plasmodium falciparum
Protocol: as §1, §2, §4

[7] = tested on: P. falciparum Dd2; test: In vitro antiplasmodial activity, 3H-hypoxanthine incorporation, strain Dd2; type: cell-based; details: Plasmodium falciparum, IC50 ± SD
Protocol: as §1, §2

[8] = Cytotoxicity, MTT, L6 cells; type: cell-based; details: rat, L-6 cells, concentration inducing 50% of cell growth arrest, three days
Protocol: as §3

[9] = tested on: P. falciparum K14 (CQ-resistant); test: In vitro antiplasmodial activity, 3H-hypoxanthine incorporation, strain K14; type: cell-based; details: Plasmodium falciparum
Protocol: as §1, §2, §4

[10] = set-up: method as in PMID 11805197; details: elimination of the active metabolite after AQ; cited from earlier work
[11] = 3D7, laboratory A (Marseille), 5% CO2, 10% O2, 85% N2, read-out: Antiplasmodial activity, IC50, 3D7
[12] = 3D7, laboratory B (Paris), candle jar ~17% O2, 3% CO2, 80% N2, read-out: Antiplasmodial activity, IC50, 3D7
[13] = F32, laboratory B (Paris), IC50 ± SD, read-out: Antiplasmodial activity, IC50, F32
[14] = K1, laboratory A (Marseille), 5% CO2, 10% O2, 85% N2, read-out: Antiplasmodial activity, IC50, K1
[15] = K1, laboratory B (Paris), candle jar ~17% O2, 3% CO2, 80% N2, read-out: Antiplasmodial activity, IC50, K1
[16] = human liver microsomes, pH 7.4, NADPH-dep. t1/2, human liver microsomes, [Compd] = 1 μM, [protein] = 0.3 mg/mL, with NADPH
[17] = human liver microsomes, pH 7.4, NADPH-free t1/2, human liver microsomes, [Compd] = 1 μM, [protein] = 0.3 mg/mL, without NADPH
[18] = FCB1, laboratory B (Paris), IC50 ± SD, read-out: Antiplasmodial activity, IC50, FcB1
[19] = DD2, laboratory A (Marseille), 5% CO2, 10% O2, 85% N2, Dd2 CQ-resistant under these conditions, read-out: Antiplasmodial activity, IC50, Dd2
[20] = DD2, laboratory B (Paris), candle jar ~17% O2, 3% CO2, 80% N2, Dd2 CQ-sensitive under these conditions, read-out: Antiplasmodial activity, IC50, Dd2
[21] = laboratory B (Paris), IC50 ± SD, read-out: Antiplasmodial activity, IC50, K14

| SMILES | IC50 [1, 11] | IC50 [1, 12] | IC50 [3, 13] | IC50 [4, 14] | IC50 [4, 15] | microsomal CLint at 1 μM ([5]; human liver microsomes) | half-life at 1 μM [5, 16] | half-life at 1 μM [5, 17] | IC50 [6, 18] | IC50 [7, 19] | IC50 [7, 20] | IC50 [9, 21] | CC50 at 5 days [2] | CC50 at 3 days [8] | further results |
| --- | --- | --- | --- | --- | --- | --- | --- | --- | --- | --- | --- | --- | --- | --- | --- |
| CCN(CC)CC1=C(CNc2ccnc3cc(Cl)ccc23)CC=CC1 [Compound 5, 7-Chloro-N-((2-((diethylamino)methyl)cyclohexa-1,4-dien-1-yl)methyl)quinolin-4-amine] | – | – | 25.4 ± 5.31 nM | 63.7 ± 1.46 nM | 20.2 ± 6.55 nM | – | – | – | – | 59 ± 1.85 nM | – | 18.7 ± 1.16 nM | – | – | – |
| CCN(CC)Cc1ccc(-c2ccc(CNc3ccnc4cc(Cl)ccc34)cc2)cc1 [Compound 4, 7-Chloro-N-((4’-((diethylamino)methyl)-[1,1’-biphenyl]-4-yl)methyl)quinolin-4-amine] | 15.2 ± 1.57 nM | 12.9 ± 0.85 nM | 16.9 ± 1 nM | 53.4 ± 2.03 nM | 11.8 ± 1 nM | 466 ± 44 µL/min/mg | ~5 min | > 240 min | 17.9 ± 1.7 nM | 20.7 ± 0.2 nM | 14.4 ± 0.5 nM | – | 2600 ± 120 nM | 2800 ± 150 nM | IC50 ([9]; under conditions A (as printed in text), read-out: IC50 against K14 strain): 7.5 nM |
| CCN(CC)CCCC(C)Nc1ccnc2cc(Cl)ccc12 (stereo not drawn) [CQ, chloroquine] | – | – | – | – | – | – | – | – | – | – | – | – | – | – | IC50 ([1]; 3D7, read-out: Antiplasmodial activity, IC50, 3D7, laboratory A (Marseille), 5% CO2, 10% O2, 85% N2): 17.6 ± 0.71 nM; IC50 ([1]; 3D7, read-out: Antiplasmodial activity, IC50, 3D7, laboratory B (Paris), candle jar ~17% O2, 3% CO2, 80% N2): 18 ± 12.3 nM; IC50 ([3]; F32, read-out: Antiplasmodial activity, IC50, F32): 33.9 ± 12.3 nM; IC50 ([4]; K1, read-out: Antiplasmodial activity, IC50, K1, laboratory A (Marseille), 5% CO2, 10% O2, 85% N2): 1090 ± 164 nM; IC50 ([4]; K1, read-out: Antiplasmodial activity, IC50, K1, laboratory B (Paris), candle jar ~17% O2, 3% CO2, 80% N2): 124 ± 48 nM; NADPH-dep. t1/2 ([5]; human liver microsomes, [Compd] = 1 μM, [protein] = 0.3 mg/mL, with NADPH): 133.2 ± 15.52 min; microsomal CLint at 1 μM ([5]; microsomes): 17.5 ± 2.03 µL/min/mg; half-life at 1 μM ([5]; microsomes, pH 7.4, NADPH-dep. t1/2, human liver microsomes, [Compd] = 1 μM, [protein] = 0.3 mg/mL, with NADPH): 133 ± 15.5 min; half-life at 1 μM ([5]; microsomes, pH 7.4, NADPH-free t1/2, human liver microsomes, [Compd] = 1 μM, [protein] = 0.3 mg/mL, without NADPH): > 240 min; IC50 ([6]; FCB1, read-out: Antiplasmodial activity, IC50, FcB1): 111 ± 43 nM; IC50 ([7]; DD2, read-out: Antiplasmodial activity, IC50, Dd2, laboratory A (Marseille), 5% CO2, 10% O2, 85% N2, Dd2 CQ-resistant under these conditions): 522 ± 95.7 nM; IC50 ([7]; DD2, read-out: Antiplasmodial activity, IC50, Dd2, laboratory B (Paris), candle jar ~17% O2, 3% CO2, 80% N2, Dd2 CQ-sensitive under these conditions): 35.1 ± 12.1 nM; IC50 ([9]; read-out: Antiplasmodial activity, IC50, K14): 103 ± 92.5 nM |

Now from value to compound, other results behind:

| IC50 [1, 11] | IC50 [1, 12] | IC50 [3, 13] | IC50 [4, 14] | IC50 [4, 15] | microsomal CLint at 1 μM ([5]; human liver microsomes) | half-life at 1 μM [5, 16] | half-life at 1 μM [5, 17] | IC50 [6, 18] | IC50 [7, 19] | IC50 [7, 20] | IC50 [9, 21] | SMILES | CC50 at 5 days [2] | CC50 at 3 days [8] | further results |
| --- | --- | --- | --- | --- | --- | --- | --- | --- | --- | --- | --- | --- | --- | --- | --- |
| 17.3 ± 0.58 nM | 16.1 ± 2.44 nM | 24.3 ± 2.9 nM | 60.3 ± 4.07 nM | 12.4 ± 0.4 nM | 51.1 ± 3.06 µL/min/mg | 45.3 ± 1.36 min | > 240 min | 31.5 ± 5.7 nM | 30.5 ± 2.12 nM | 17.7 ± 3.78 nM | 33 ± 5.76 nM | CCN(CC)Cc1ccc(CNc2ccnc3cc(Cl)ccc23)cc1 [Compound 3, 7-Chloro-N-(4-((diethylamino)methyl)benzyl)quinolin-4-amine] | 13000 ± 2260 nM | 13800 ± 1900 nM | – |
| 24.6 ± 3.06 nM | 11.9 ± 1 nM | – | 34.3 ± 0.58 nM | 9.6 ± 0.51 nM | – | – | – | – | 31.6 ± 7.77 nM | 11.3 ± 0.64 nM | – | CCN(CC)Cc1cc(Nc2ccnc3cc(Cl)ccc23)ccc1O [AQ, amodiaquine, reference compound] | – | – | terminal half-life [10]: ~ 100 h; microsomal CLint at 1 μM ([5]; microsomes): 431 ± 33.4 µL/min/mg; half-life at 1 μM ([5]; microsomes, pH 7.4, NADPH-dep. t1/2): 5.4 ± 0.42 min; half-life at 1 μM ([5]; microsomes, pH 7.4, NADPH-free t1/2): > 240 min |
| 13.5 ± 0.71 nM | 21.6 ± 3.11 nM | 30 ± 15.2 nM | 52.7 ± 0.99 nM | 14.6 ± 0.36 nM | 45.6 ± 0.12 µL/min/mg | 50.9 ± 0.55 min | > 240 min | 12.1 ± 1.2 nM | 21.3 ± 2.52 nM | 19.4 ± 2.18 nM | 13.5 ± 4.66 nM | CCN(CC)Cc1ccccc1CNc1ccnc2cc(Cl)ccc12 [Compound 1, 7-Chloro-N-(2-((diethylamino)methyl)benzyl)quinolin-4-amine] | 26400 ± 1750 nM | 27700 ± 1730 nM | – |
| 18.4 ± 0.66 nM | 17.1 ± 2.97 nM | 14.7 ± 0.45 nM | 64.2 ± 6.16 nM | 12 ± 1.15 nM | 56.2 ± 0.55 µL/min/mg | 41.1 ± 0.41 min | > 240 min | 30.3 ± 1.7 nM | 26.5 ± 5.07 nM | 17.1 ± 1.72 nM | 23.6 ± 1.73 nM | CCN(CC)Cc1cccc(CNc2ccnc3cc(Cl)ccc23)c1 [Compound 2, 7-Chloro-N-(3-((diethylamino)methyl)benzyl)quinolin-4-amine] | 20300 ± 3400 nM | 20600 ± 3920 nM | – |
